# Legend:
# [1] = Upregulation of acetylated H4 protein expression in human NCI-H1975 cells assessed as fold change at 0.1 uM incubated for 24 hrs by immunoblotting analysis (reference value: 1); format: functional
# Histone deacetylase 9 = Histone deacetylase 9 (Homo sapiens, UniProt Q9UKV0); test: Inhibition of recombinant human HDAC9 using acetylated luminogenic substrate incubated for 10 mins by ultra-glo recombinant firefly luciferase based luminescence assay
# [2] = Upregulation of acetylated H3 protein expression in human MDA-MB-231 cells assessed as fold change at 0.1 uM incubated for 24 hrs by immunoblotting analysis (reference value: 1); format: functional
# [3] = Upregulation of acetylated H4 protein expression in human MDA-MB-231 cells assessed as fold change at 0.1 uM incubated for 24 hrs by immunoblotting analysis (reference value: 1); format: functional
# [4] = Effect on HDAC4 protein expression in human MDA-MB-231 cells assessed as fold change at 0.1 uM incubated for 24 hrs by immunoblotting analysis (reference value: 1); format: functional
# [5] = Toxicity in athymic nude BALB/c mouse xenografted with human MDA-MB-231 cells assessed as effect on BUN level in serum at 3 mg/kg, ip administered 5 times a week for 7 weeks; format: organism-based; conditions: in vivo, 1176 h
# Histone deacetylase 8 = biological target: T1, Histone deacetylase 8 (Homo sapiens, UniProt Q9BY41); test: Inhibition of recombinant human HDAC8 using acetylated luminogenic substrate incubated for 10 mins by ultra-glo recombinant firefly luciferase based luminescence assay
# T1 sequence (Q9BY41 whole entry): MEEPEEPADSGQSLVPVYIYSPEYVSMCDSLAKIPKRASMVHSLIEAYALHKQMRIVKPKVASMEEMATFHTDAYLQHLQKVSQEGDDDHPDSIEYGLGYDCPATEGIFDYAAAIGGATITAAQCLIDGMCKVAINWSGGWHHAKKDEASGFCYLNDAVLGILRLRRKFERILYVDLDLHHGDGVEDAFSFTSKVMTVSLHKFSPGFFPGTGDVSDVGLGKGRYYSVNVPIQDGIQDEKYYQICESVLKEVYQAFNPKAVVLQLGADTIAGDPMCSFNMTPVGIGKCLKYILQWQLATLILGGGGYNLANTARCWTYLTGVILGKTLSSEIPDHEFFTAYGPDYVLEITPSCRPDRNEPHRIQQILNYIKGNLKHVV
# [6] = Effect on HDAC8 protein expression in human MDA-MB-231 cells assessed as fold change at 0.1 uM incubated for 24 hrs by immunoblotting analysis (reference value: 1); format: functional
# [7] = Toxicity in athymic nude BALB/c mouse xenografted with human NCI-H1975 cells assessed as effect on ALT level at 6 mg/kg, ip administered 5 times a week for 3 weeks and measured on day 22; format: organism-based; conditions: in vivo, 528 h, time 22 day
# [8] = Downregulation of HDAC3 protein expression in human NCI-H1975 cells assessed as fold change at 0.1 uM incubated for 24 hrs by immunoblotting analysis (reference value: 1); format: functional
# [9] = Downregulation of HDAC5 protein expression in human MDA-MB-231 cells assessed as fold change at 0.1 uM incubated for 24 hrs by immunoblotting analysis (reference value: 1); format: functional
# [10] = Effect on HDAC4 protein expression in human MDA-MB-231 cells assessed as fold change at 0.05 uM incubated for 24 hrs by immunoblotting analysis (reference value: 1); format: functional
# [11] = Upregulation of acetylated H4 protein expression in human NCI-H1975 cells assessed as fold change at 0.05 uM incubated for 24 hrs by immunoblotting analysis (reference value: 1); format: functional
# [12] = Downregulation of HDAC9 protein expression in human NCI-H1975 cells assessed as fold change at 0.05 uM incubated for 24 hrs by immunoblotting analysis (reference value: 1); format: functional
# [13] = Effect on HDAC10 protein expression in human NCI-H1975 cells assessed as fold change at 0.05 uM incubated for 24 hrs by immunoblotting analysis (reference value: 1); format: functional
# NCI-H1975 = test: Antitumor activity against human NCI-H1975 cells xenografted in athymic nude BALB/c mouse assessed as average tumor size at 6 mg/kg, ip administered 5 times a week for 3 weeks and measured on day 22 (reference value: 776.4 +/- 118.1 mm3); format: functional; conditions: time 22 day
# Histone deacetylase 11 = biological target: T2, Histone deacetylase 11 (Homo sapiens, UniProt Q96DB2); test: Inhibition of recombinant human HDAC11 using acetylated luminogenic substrate incubated for 10 mins by ultra-glo recombinant firefly luciferase based luminescence assay
# T2 sequence (Q96DB2 whole entry): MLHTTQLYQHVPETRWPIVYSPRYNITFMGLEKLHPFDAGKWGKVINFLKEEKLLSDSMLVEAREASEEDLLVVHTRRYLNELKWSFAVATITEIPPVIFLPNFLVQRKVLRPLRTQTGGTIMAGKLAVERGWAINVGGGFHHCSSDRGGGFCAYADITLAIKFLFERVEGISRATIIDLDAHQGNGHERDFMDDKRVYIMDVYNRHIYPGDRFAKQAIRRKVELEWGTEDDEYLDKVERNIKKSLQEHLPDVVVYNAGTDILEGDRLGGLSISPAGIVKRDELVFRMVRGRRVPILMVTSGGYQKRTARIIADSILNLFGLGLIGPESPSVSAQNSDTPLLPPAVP
# [14] = Effect on HDAC5 protein expression in human MDA-MB-231 cells assessed as fold change at 0.05 uM incubated for 24 hrs by immunoblotting analysis (reference value: 1); format: functional
# [15] = Downregulation of HDAC7 protein expression in human NCI-H1975 cells assessed as fold change at 0.05 uM incubated for 24 hrs by immunoblotting analysis (reference value: 1); format: functional
# Histone deacetylase 4 = Histone deacetylase 4 (Homo sapiens, UniProt P56524); test: Inhibition of recombinant human HDAC4 using acetylated luminogenic substrate incubated for 10 mins by ultra-glo recombinant firefly luciferase based luminescence assay
# Sequence of Histone deacetylase 4 (P56524 whole entry): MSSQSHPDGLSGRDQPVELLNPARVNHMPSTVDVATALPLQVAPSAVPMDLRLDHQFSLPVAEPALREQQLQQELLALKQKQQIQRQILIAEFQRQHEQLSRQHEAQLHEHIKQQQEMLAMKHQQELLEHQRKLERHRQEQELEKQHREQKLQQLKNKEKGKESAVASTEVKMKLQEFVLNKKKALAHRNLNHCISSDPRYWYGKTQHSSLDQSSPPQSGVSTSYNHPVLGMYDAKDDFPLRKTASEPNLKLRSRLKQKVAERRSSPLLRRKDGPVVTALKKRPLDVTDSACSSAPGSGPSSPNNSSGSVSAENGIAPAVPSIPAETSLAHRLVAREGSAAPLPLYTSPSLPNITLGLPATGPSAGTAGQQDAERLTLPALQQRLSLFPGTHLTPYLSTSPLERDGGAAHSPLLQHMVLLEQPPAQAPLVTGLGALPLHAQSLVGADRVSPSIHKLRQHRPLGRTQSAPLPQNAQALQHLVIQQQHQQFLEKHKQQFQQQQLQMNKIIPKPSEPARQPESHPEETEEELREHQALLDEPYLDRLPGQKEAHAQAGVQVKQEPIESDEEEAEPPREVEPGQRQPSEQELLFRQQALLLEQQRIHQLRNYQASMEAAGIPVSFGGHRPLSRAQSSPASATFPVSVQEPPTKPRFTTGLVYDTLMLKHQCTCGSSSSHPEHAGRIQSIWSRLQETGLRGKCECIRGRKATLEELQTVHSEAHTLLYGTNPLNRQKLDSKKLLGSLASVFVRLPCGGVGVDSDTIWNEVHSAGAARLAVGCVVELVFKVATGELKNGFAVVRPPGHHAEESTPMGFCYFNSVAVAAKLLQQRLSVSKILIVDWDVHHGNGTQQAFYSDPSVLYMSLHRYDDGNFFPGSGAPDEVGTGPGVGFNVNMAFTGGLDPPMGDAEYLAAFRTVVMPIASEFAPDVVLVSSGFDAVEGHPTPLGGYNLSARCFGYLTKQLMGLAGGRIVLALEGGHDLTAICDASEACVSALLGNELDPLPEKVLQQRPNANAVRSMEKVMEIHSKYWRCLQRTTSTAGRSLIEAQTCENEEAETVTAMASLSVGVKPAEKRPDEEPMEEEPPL
# Sequence of Histone deacetylase 9 (Q9UKV0 whole entry): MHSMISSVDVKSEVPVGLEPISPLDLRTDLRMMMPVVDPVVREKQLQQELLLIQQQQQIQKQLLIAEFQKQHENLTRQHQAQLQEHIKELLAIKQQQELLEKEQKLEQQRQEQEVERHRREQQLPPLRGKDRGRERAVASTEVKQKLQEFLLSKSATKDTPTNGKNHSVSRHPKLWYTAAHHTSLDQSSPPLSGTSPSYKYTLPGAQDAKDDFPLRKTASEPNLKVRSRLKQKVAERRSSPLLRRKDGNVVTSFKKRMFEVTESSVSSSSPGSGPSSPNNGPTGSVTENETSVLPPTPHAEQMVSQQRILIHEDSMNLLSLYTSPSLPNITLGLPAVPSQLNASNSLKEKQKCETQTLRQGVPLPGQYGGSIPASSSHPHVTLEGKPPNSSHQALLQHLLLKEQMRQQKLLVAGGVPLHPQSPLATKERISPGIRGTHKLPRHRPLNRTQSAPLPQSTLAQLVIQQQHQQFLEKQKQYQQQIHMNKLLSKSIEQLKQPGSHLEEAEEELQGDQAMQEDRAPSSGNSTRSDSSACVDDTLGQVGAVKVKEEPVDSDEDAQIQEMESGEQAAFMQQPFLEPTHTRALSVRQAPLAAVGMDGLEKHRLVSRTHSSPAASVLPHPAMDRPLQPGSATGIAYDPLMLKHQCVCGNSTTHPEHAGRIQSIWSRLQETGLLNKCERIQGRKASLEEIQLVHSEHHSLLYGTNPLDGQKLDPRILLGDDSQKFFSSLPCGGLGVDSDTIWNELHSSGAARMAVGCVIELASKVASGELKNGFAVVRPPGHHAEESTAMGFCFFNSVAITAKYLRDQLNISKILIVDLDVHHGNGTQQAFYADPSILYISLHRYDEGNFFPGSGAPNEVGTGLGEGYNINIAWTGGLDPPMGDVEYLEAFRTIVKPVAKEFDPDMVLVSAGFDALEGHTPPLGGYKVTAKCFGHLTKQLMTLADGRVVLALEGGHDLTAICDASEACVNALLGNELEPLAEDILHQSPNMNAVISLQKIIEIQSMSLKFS
smiles,measurement,setting,value
CCOc1ccc(-c2nc(C(=O)NCc3ccc(C(=O)NO)cc3)c3[nH]c(=O)n(-c4cccnc4OC)c3n2)cn1,fold change (FC),[1],1.95
same,IC50,Histone deacetylase 9,19.7 nM
same,fold change (FC),[2],1.35
same,fold change (FC),[3],2.91
same,fold change (FC),[4],1.01
same,Activity,[5],Non-Toxic
same,IC50,Histone deacetylase 8,138 nM
same,fold change (FC),[6],1.08
same,Activity,[7],Non-Toxic
same,fold change (FC),[8],0.37
same,fold change (FC),[9],0.99
same,fold change (FC),[10],1.15
same,fold change (FC),[11],1.7
same,fold change (FC),[12],0.5
same,fold change (FC),[13],1.09
same,Activity,NCI-H1975,331.8 mm3
same,IC50,Histone deacetylase 11,49.9 nM
same,fold change (FC),[14],1.16
same,fold change (FC),[15],0.94
same,IC50,Histone deacetylase 4,> 1000 nM

# From ChEMBL document CHEMBL5518174 (Eur J Med Chem, 2024)
